These results are taken from patent EP4722209A1 (Beijing Shenogen Pharma Group, priority 2023, dated 2024).

The structures appear in SMILES notation.

For one assay, the target named is T1, ERα (Homo sapiens, UniProt P03372).
T1 construct: host or cells: MCF-7
T1 sequence (P03372 1-595): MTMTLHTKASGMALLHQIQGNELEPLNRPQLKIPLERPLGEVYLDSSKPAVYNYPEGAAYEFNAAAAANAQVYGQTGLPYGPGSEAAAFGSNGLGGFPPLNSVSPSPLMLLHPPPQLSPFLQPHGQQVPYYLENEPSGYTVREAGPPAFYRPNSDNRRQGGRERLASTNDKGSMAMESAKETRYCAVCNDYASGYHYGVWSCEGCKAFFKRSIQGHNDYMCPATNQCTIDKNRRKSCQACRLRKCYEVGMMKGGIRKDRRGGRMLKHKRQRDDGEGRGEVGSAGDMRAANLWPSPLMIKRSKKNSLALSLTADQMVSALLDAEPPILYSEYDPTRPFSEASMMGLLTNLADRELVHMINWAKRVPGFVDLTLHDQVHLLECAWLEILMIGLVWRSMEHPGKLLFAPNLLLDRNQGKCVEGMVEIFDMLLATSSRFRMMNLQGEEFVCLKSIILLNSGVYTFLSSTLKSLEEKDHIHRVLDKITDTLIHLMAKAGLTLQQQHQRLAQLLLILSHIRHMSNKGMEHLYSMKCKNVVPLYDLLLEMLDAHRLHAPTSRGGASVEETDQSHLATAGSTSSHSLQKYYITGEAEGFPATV
Kind of assay: ER degradation activity in MCF-7 cells (Western blot, grayscale intensity). The class given is cell-based. Conditions: 6 hours treatment, 1 nM to 100 nM, concentration required to degrade 50% of the target protein. A digest of the protocol:
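MCF-7 cells were treated 24 h after seeding with test compounds at 1 nM to 100 nM final (0.2% DMSO) for 6 h at 37 °C. ERα in lysates (30 µg protein) was detected by Western blot with ECL; degradation was quantified from band grayscale intensity and DC50 derived.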

A further assay relates to MCF-7 cells. Nature of the assay: Inhibition of MCF-7 cell proliferation (CellTiter-Glo cell viability). It is filed as cell-based. Conditions: Homo sapiens, MCF7, 144 h, 6 days treatment, 1 pM to 10 µM. How it is done:
ERα-positive human breast cancer cells MCF-7 (ATCC, HTB-22) were cultured with EMEM medium (ATCC, catalog number 30-2003) containing 10% fetal bovine serum (Thermo Fisher, catalog number 10099141) and 10 µg/mL bovine insulin in 25 cm^2 or 75 cm^2 plastic tissue culture flasks in a 37 °C incubator with 5% CO2. The cells were passaged 2 to 3 times per week.
MCF-7 cells were seeded in 96-well plate at 3×10^3 cells/well with 90 µL culture medium per well, and cultured in a 37 °C incubator with 95% air and 5% CO2. After 24 hours, the test compounds were added: the compounds were serially diluted 10-fold in DMSO starting from 10 mM (dissolved in DMSO) to prepare gradient stock solutions. A complete culture medium containing 1% DMSO was prepared for further dilution, temporarily named as the "dilution buffer." Working solutions were prepared by diluting each stock solution with 99 times the volume of dilution buffer, that is, by adding 1 µL of the 10 mM stock solution to 99 µL of the dilution buffer and mixing thoroughly. Finally, 10 µL of the working solution was added to the cell-seeded culture plate. The final concentration of DMSO in the cell culture medium was 0.2%, and the final concentration of the test compounds ranged from 1 pM to 10 µM. The cells were then incubated at 37 °C for 3 days. The culture medium was removed and replaced with 90µL per well of fresh medium. According to the above compound dilution method, the test compounds were added again. On the 6th day, the CellTiter Glo luminescent cell viability assay kit (Promag, item number G7573) was added for cell viability measurement.
Cell viability was measured using the CellTiter-Glo assay kit, and the half-maximal growth inhibitory concentration (GI50) of the compounds was calculated using the Prism software.
The GI50 values (i.e., the concentration of the test compounds required to inhibit 50% of the cell proliferation) were calculated and shown in Table 2. A corresponds to a GI50 value below 10 nM, B corresponds to a GI50 value greater than 10 nM and less than 100 nM, and C corresponds to GI50 values greater than 100 nM. Table 2. The GI50 values of exemplary compounds in MCF-7 cells

The DC50 is the midpoint of the concentration-degradation curve. Broadly, the GI50 is the concentration giving 50% growth inhibition. High values mean lower sensitivity of the cells, low ones greater sensitivity of the cells. As for `CC1(C)CC(=C(c2ccc(N3CCC(CN4CCN(c5ccc6c(c5)CN(C5CCC(=O)NC5=O)C6=O)CC4)CC3)nc2)c2ccc3[nH]nc(F)c3c2)CC(C)(C)O1` (racemic) [Compound 34], on ERα, the 50% degradation concentration (DC50) was under 10 nM. In addition, the 50% growth inhibitory concentration (GI50) with MCF-7 cells was under 10 nM. In the case of `CC1(C)CC(=C(c2ccc(N3CCC4(CC3)CC(N3CCN(c5ccc6c(c5)CN(C5CCC(=O)NC5=O)C6=O)CC3)C4)nc2)c2ccc3[nH]nc(F)c3c2)CC(C)(C)O1` (racemic) [Compound 35], on ERα, the DC50 is under 10 nM. This compound also had a 50% growth inhibitory concentration (GI50) with MCF-7 cells of under 10 nM. `CC1(C)CC(=C(c2ccc(N3CCN(C4CN(c5ccc6c(c5)C(=O)N(C5CCC(=O)NC5=O)C6=O)C4)CC3)cc2)c2ccc3[nH]nc(F)c3c2)CC(C)(C)O1` (centres unmarked) [Compound 2] yielded a DC50 at ERα of under 10 nM. In the assay with MCF-7 cells, the GI50 is 10 to 100 nM. On the same counts, the results for `CC1(C)CC(=C(c2ccc(N3CCC(CN4CCN(c5ccc6c(c5)C(=O)N(C5CCC(=O)NC5=O)C6=O)CC4)CC3)cc2)c2ccc3[nH]ncc3c2)CC(C)(C)O1` (centres unmarked) [Compound 5] are under 10 nM and under 10 nM.

`CC1(C)CC(=C(c2ccc(N3CCC(CN4CCN(c5ccc6c(c5)C(=O)N(C5CCC(=O)NC5=O)C6=O)CC4)CC3)cc2)c2ccc3[nH]nc(F)c3c2)CC(C)(C)O1` (centres unmarked) [Compound 6] gave a 50% degradation concentration (DC50) on ERα of under 10 nM. Besides, the concentration for 50% growth inhibition (GI50) in the assay with MCF-7 cells is under 10 nM. With `CC1(C)CC(=C(c2ccc(N3CCN(C4CCN(c5ccc6c(c5)C(=O)N(C5CCC(=O)NC5=O)C6=O)CC4)CC3)cc2)c2ccc3[nH]nc(F)c3c2)CC(C)(C)O1` (centres unmarked) [Compound 22], the DC50 at ERα was under 10 nM. The compound also came in with a 50% growth inhibitory concentration (GI50) in the assay with MCF-7 cells of under 10 nM. As for `CC1(C)CC(=C(c2ccc(N3CCC(CN4CCN(c5ccc6c(c5)CN(C5CCC(=O)NC5=O)C6=O)CC4)CC3)nc2)c2ccc3c(F)n[nH]c3c2)CC(C)(C)O1` (centres unmarked) [Compound 112], the 50% degradation concentration (DC50) on ERα lay in the range of 10 to 100 nM. On ERα, `CC1(C)CC(=C(c2ccc(N3CCC(CN4CCN(c5ccc6c(c5)CN(C5CCC(=O)NC5=O)C6=O)CC4)CC3)nc2)c2ccc3cncn3c2)CC(C)(C)O1` (centres unmarked) [Compound 113] yielded a 50% degradation concentration (DC50) of over 100 nM. The same measure, in the same setting: the same measure for `CC1(C)CC(=C(c2ccc(N3CCC(CN4CCN(c5ccc6c(c5)CN(C5CCC(=O)NC5=O)C6=O)CC4)CC3)nc2)c2cccc(O)c2)CC(C)(C)O1` (centres unmarked) [Compound 114]: 10 to 100 nM; for `CC1(C)CC(=C(c2ccc(N3CCC(CN4CCN(c5ccc(NC6CCC(=O)NC6=O)c(F)c5)CC4)CC3)cc2)c2ccc3[nH]nc(F)c3c2)CC(C)(C)O1` (centres unmarked) [Compound 115]: over 100 nM; for `CC1(C)CC(=C(c2ccc(N)nc2)c2ccc(N3CCC(CN4CCN(c5ccc6c(c5)CN(C5CCC(=O)NC5=O)C6=O)CC4)CC3)nc2)CC(C)(C)O1` (centres unmarked) [Compound 116]: over 100 nM. Regarding `CC1(C)CC(=C(c2ccc(N3CCC(CN4CCN(c5ccc6c(c5)C(=O)N(C5CCC(=O)NC5=O)C6)CC4)CC3)nc2)c2ccc3[nH]nc(F)c3c2)CC(C)(C)O1` (centres unmarked) [Compound 118], the 50% degradation concentration (DC50) at ERα is over 100 nM. Still for that read-out and setting: the value for `CC1(C)CC(=C(c2ccc(N3CCC(CN4CCN(c5ccc(C(=O)N[C@H]6CCC(=O)NC6=O)c(F)c5)CC4)CC3)nc2)c2ccc3[nH]nc(F)c3c2)CC(C)(C)O1` [Compound 122] was under 10 nM; that for `CC1(C)CC(=C(c2ccc(N3CCC4(CC3)CC(N3CCN(c5ccc(C(=O)N[C@H]6CCC(=O)NC6=O)c(F)c5)CC3)C4)nc2)c2ccc3[nH]nc(F)c3c2)CC(C)(C)O1` [Compound 123] was 10 to 100 nM. The same measure, in the same setting: the value for `Cn1nc(N2CCC(=O)NC2=O)c2cc(F)c(N3CCN(CC4CCN(c5ccc(C(=C6CC(C)(C)OC(C)(C)C6)c6ccc7[nH]nc(F)c7c6)cn5)CC4)CC3)cc21` [Compound 124] was 10 to 100 nM; that for `Cn1nc(N2CCC(=O)NC2=O)c2cc(F)c(N3CCN(C4CC5(CCN(c6ccc(C(=C7CC(C)(C)OC(C)(C)C7)c7ccc8[nH]nc(F)c8c7)cn6)CC5)C4)CC3)cc21` [Compound 125] was under 10 nM.

`CC1(C)CC(=C(c2ccc(N3CCC(CN4CCN(c5ccc(C(=O)N[C@H]6CCC(=O)NC6=O)cc5)CC4)CC3)nc2)c2ccc3[nH]nc(F)c3c2)CC(C)(C)O1` [Compound 126] came in with a DC50 on ERα of under 10 nM.

With `CC1(C)CC(=C(c2ccc(N3CCC4(CC3)CC(N3CCN(c5ccc(C(=O)N[C@H]6CCC(=O)NC6=O)cc5)CC3)C4)nc2)c2ccc3[nH]nc(F)c3c2)CC(C)(C)O1` [Compound 127], the DC50 at ERα was under 10 nM.

At ERα, `CC1(C)CC(=C(c2ccc(N3CCC(CN4CCN(c5ccc(C(=O)N[C@H]6CCC(=O)NC6=O)nc5)CC4)CC3)nc2)c2ccc3[nH]nc(F)c3c2)CC(C)(C)O1` [Compound 128] displayed a DC50 of 10 to 100 nM. Still for that read-out and setting: the same measure for `CC1(C)CC(=C(c2ccc(N3CCC4(CC3)CC(N3CCN(c5ccc(C(=O)N[C@H]6CCC(=O)NC6=O)nc5)CC3)C4)nc2)c2ccc3[nH]nc(F)c3c2)CC(C)(C)O1` [Compound 129]: 10 to 100 nM; for `CC1(C)CC(=C(c2ccc(N3CCC(CN4CCN(c5ccc6c(c5)C(=O)N([C@@H]5CCC(=O)NC5=O)C6=O)CC4)CC3)cc2)c2ccc3[nH]ncc3c2)CC(C)(C)O1` [Compound 130]: under 10 nM; for `CC1(C)CC(=C(c2ccc(N3CCC(CN4CCN(c5ccc6c(c5)C(=O)N([C@H]5CCC(=O)NC5=O)C6=O)CC4)CC3)cc2)c2ccc3[nH]ncc3c2)CC(C)(C)O1` [Compound 131]: under 10 nM.

As for `CC1(C)CC(=C(c2ccc(N3CCC(N4CCN(c5ccc6c(c5)CN([C@@H]5CCC(=O)NC5=O)C6=O)CC4)CC3)cc2)c2ccc3[nH]nc(F)c3c2)CC(C)(C)O1` [Compound 134], on ERα, the half-maximal degradation concentration (DC50) lay in the range of 10 to 100 nM. For `CC1(C)CC(=C(c2ccc(N3CCC(N4CCN(c5ccc6c(c5)CN([C@H]5CCC(=O)NC5=O)C6=O)CC4)CC3)cc2)c2ccc3[nH]nc(F)c3c2)CC(C)(C)O1` [Compound 135], at ERα, the DC50 was 10 to 100 nM. `CC1(C)CC(=C(c2ccc(N3CCC(CN4CCN(c5ccc6c(c5)CN([C@@H]5CCC(=O)NC5=O)C6=O)CC4)CC3)nc2)c2ccc3[nH]ncc3c2)CC(C)(C)O1` [Compound 136] gave a DC50 on ERα of under 10 nM.

On ERα, `CC1(C)CC(=C(c2ccc(N3CCC(CN4CCN(c5ccc6c(c5)CN([C@H]5CCC(=O)NC5=O)C6=O)CC4)CC3)nc2)c2ccc3[nH]ncc3c2)CC(C)(C)O1` [Compound 137] came in with a DC50 of under 10 nM.

On to `CC1(C)CC(=C(c2ccc(N3CC4(CCN(C5CCN(c6ccc7c(c6)CN([C@@H]6CCC(=O)NC6=O)C7=O)CC5)CC4)C3)nc2)c2ccc3[nH]nc(F)c3c2)CC(C)(C)O1` [Compound 138], for which, at ERα, the DC50 is under 10 nM. The same measure, in the same setting: the value for `CC1(C)CC(=C(c2ccc(N3CC4(CCN(C5CCN(c6ccc7c(c6)CN([C@H]6CCC(=O)NC6=O)C7=O)CC5)CC4)C3)nc2)c2ccc3[nH]nc(F)c3c2)CC(C)(C)O1` [Compound 139] was 10 to 100 nM; that for `CC1(C)CC(=C(c2ccc(N3CCC4(CC3)CN(C3CCN(c5ccc6c(c5)CN([C@@H]5CCC(=O)NC5=O)C6=O)CC3)C4)nc2)c2ccc3[nH]nc(F)c3c2)CC(C)(C)O1` [Compound 140] was under 10 nM.

In turn, `CC1(C)CC(=C(c2ccc(N3CCC4(CC3)CN(C3CCN(c5ccc6c(c5)CN([C@H]5CCC(=O)NC5=O)C6=O)CC3)C4)nc2)c2ccc3[nH]nc(F)c3c2)CC(C)(C)O1` [Compound 141] displayed a DC50 at ERα of under 10 nM. With `CC1(C)CC(=C(c2ccc(N3CCC(F)(CNC4CCN(c5ccc6c(c5)CN([C@@H]5CCC(=O)NC5=O)C6=O)CC4)CC3)nc2)c2ccc3[nH]nc(F)c3c2)CC(C)(C)O1` [Compound 142], the DC50 at ERα was under 10 nM. As for `CC1(C)CC(=C(c2ccc(N3CCC(F)(CNC4CCN(c5ccc6c(c5)CN([C@H]5CCC(=O)NC5=O)C6=O)CC4)CC3)nc2)c2ccc3[nH]nc(F)c3c2)CC(C)(C)O1` [Compound 143], the DC50 at ERα lay in the range of 10 to 100 nM.
